Data as given in patent publication US20250017888A1, “COMPOUNDS FOR TREATING DISEASES ASSOCIATED WITH HYALURONAN OVERPRODUCTION” (THE ROYAL VETERINARY COLLEGE, priority 2021, published 2025).
Read-outs that look alike come from different tables or passages of the source.

How the values were obtained:
Assay type in all cases: cell-based
[1] = tested on: hyaluronan export from chondrosarcoma cells; test: Inhibition of hyaluronan export / production in chondrosarcoma cells; settings: for inhibition of hyaluronan export: culture supernatant after 2 days, comparison with parent compound, particularly below 3 μM
Procedure: (§1) The hyaluronan synthase activity (Prehm, P. and Schumacher, U., Biochem. Pharmacol. 2004, 68, 1401-1410), the cytotoxicity of the drugs (O'Brien, J. et al., Eur. J. Biochem. 2000, 267, 5421-5426), proteoglycan synthesis rate, hyaluronan (Prehm, P. J. Rheumatol., 2005, 32, 690-696) and proteoglycan (Bjornsson, S. Anal. Biochem. 1993, 210, 282-291) were determined as described. The effect of the prenylflavonoids on the MRP5 export rate was measured with fluorescein diacetate as described (Schulz, T., Schumacher, U., and Prehm, P., J Biol. Chem., 2007, 282, 20999-21004). The determination of the IC50 values on the phosphodiesterase 5 was performed according to the instructions of BPS Bioscience. The culture of bovine chondrocytes in alginate beads and of explants of bovine cartilage was described previously (Deiters, B. and Prehm, P. Arthritis Res. Ther., 2008, 10, R8; Prehm, P. J. Rheumatol. 2005, 32, 690-696). Osteoarthritic reactions were induced in chondrocytes growing in alginate beads by incubation with medium containing 10 ng/ml of II-17 for 6 days, and in cartilage explants with 10 ng/ml of II-17 and 5 ng/ml of II-1α. The supernatants were withdrawn and stored at −20° C. for later analysis. The explants were weighed and extracted with 1 ml of 4 M guanidinium-HCl for 72 hours at 4° C. The proteoglycan concentrations were determined in the extracts.
Chondrosarcoma cells were plated on a 96 well microtiter plate and in the presence of increasing flavonoid concentrations. After 2 days the concentration of hyaluronan was determined in the culture supernatant.

[2] = tested on: chondrosarcoma cells; test: Uptake of flavonoids into chondrosarcoma cells by intracellular fluorescence
Procedure: Confluent monolayers of chondrosarcoma cells on 96 well microtiter plates were incubated with 100 μM solutions of flavonoids in serum-free Quantum medium. Changes in fluorescence were monitored from the bottom of the wells at excitation and emission wavelengths of 340 nm and 450 nm for xanthohumol and at 440 nm and 530 nm for quercetin, respectively.
Flavonoids are weakly fluorescent in aqueous buffer, but greatly enhance the fluorescence in the presence of proteins (Sengupta, B. and Sengupta, P. K., Biochem. Biophys. Res. Commun., 2002, 299, 400-403). This property was used to follow the uptake of quercetin and xanthohumol into chondrosarcoma cells.

[3] = tested on: chondrosarcoma cells (SW1353); test: Alamar blue staining of chondrosarcoma; settings: Homo sapiens
Procedure: as §1
Chondrosarcoma cells (SW1353 from the American Type Culture Collection) were grown in Dulbecco's medium supplemented with streptomycin/penicillin (100 units of each/ml), 10% foetal calf serum or in serum free Quantum medium supplemented with streptomycin/penicillin (100 units of each/ml), kanamycin (100 units/ml).

[4] = Alamar blue toxicity assay (FIG. 1); settings: below concentrations of 100 μM
Procedure: as §1
The toxicity was determined by the Alamar blue assay.

[5] = tested on: bovine cartilage explants; test: Proteoglycan loss from interleukin activated bovine cartilage explants; settings: interleukin stimulated, 5 days
Procedure: Cartilage explants were weighed (average wet weight: 20 mg) incubated in the absence and presence of IL-1 (2 ng/ml) and the inhibitors at various concentrations for 5 days. The tissues were extracted with 1.5 ml of a solution of 4 M guanidinium hydrochloride, 0.1 M ε-aminohexanoid acid, 5 mM benzamidine, 10 mM N-ethylmaleinimide, 0.5 mM phenylmethylsulfonyl fluoride for 3 days at 4° C. The solution was centrifuged for 5 min at 10.000 g and the proteoglycans were determined in the supernatant by the alcian blue method as described (Bjornsson, S., Anal. Biochem., 1993, 210, 282-291).
Bovine cartilage explants were incubated in the absence and presence of interleukin for stimulation of osteoarthritic reactions and the indicated concentrations of the xanthohumol-betaine (FIG. 6A), xanthohumol-prothiazole (FIG. 6B), quercetin-prothiazole (FIG. 6C), quercetin (FIG. 6D) and xanthohumol (FIG. 6E) for 5 days. The cartilage explants were weighed and the proteoglycan concentrations were determined in the cartilage explants (solid bars) and culture supernatants (open bars).

[6] = tested on: chondrosarcoma cells; test: Inhibition of chondrosarcoma cell growth (Coulter counter); settings: cell numbers after 2 days
Procedure: Chondrosarcoma cells were plated on a 24 well microtiter plate and in the presence of increasing flavonoid concentrations. After 2 days the cells were trypsinized and the cell numbers were determined in a Coulter counter.

[7] = tested on: fibroblasts; test: Alamar blue staining of fibroblasts; settings: Fibroblast
Procedure: as §1

| Structure (SMILES) | IC50 [1] [µM] | uptake into chondrosarcoma cells (intracellular fluorescence) ([2]; concentration dependence, FIG. 2A) | IC50 [3] [µM] | toxicity in Alamar blue assay [4] | inhibition of hyaluronan export [1] | uptake into chondrosarcoma cells (intracellular fluorescence) [2] | inhibition of proteoglycan loss (protective effect) [5] | inhibition of chondrosarcoma cell growth [6] | IC50 [7] [µM] |
| --- | --- | --- | --- | --- | --- | --- | --- | --- | --- |
| O=c1c(O)c(-c2ccc(O)c(O)c2)oc2cc(O)cc(O)c12 [Quercetin, reference compound] | 16 | did not accumulate inside the cells | 70 | not toxic |  |  |  |  |  |
| COc1cc(O)c(CC=C(C)C)c(O)c1C(=O)/C=C/c1ccc(OC(=O)CN(C=O)/C=C\SC(C)=O)cc1 [Xanthohumol-prothiazole, 4-((E)-3-(2,4-dihydroxy-6-methoxy-3-(3-methylbut-2-en-1-yl)phenyl)-3-oxoprop-1-en-1-yl)phenyl 2-(N-((Z)-2-(acetylthio)vinyl)formamido)acetate] | 20 |  | 69 | not toxic | more effective than their parent compound | taken up in a concentration dependent manner | similarly effective | more effective at submicromolar concentrations | 74 |
| CC(=O)S/C=C\N(C=O)CC(=O)Oc1ccc(-c2oc3cc(O)cc(O)c3c(=O)c2O)cc1O [Quercetin-prothiazole, (Z)-2-hydroxy-4-(3,5,7-trihydroxy-4-oxo-4H-chromen-2-yl)phenyl 2-(N-(2-(acetylthio)vinyl)formamido)acetate] | 8 |  | 61 | not toxic | more effective than their parent compound | taken up in a concentration dependent manner | similarly effective | more effective at submicromolar concentrations | 66 |
